Results from PubChem BioAssay AID1259407 (Chemical Carcinogenesis Research Information System (CCRIS), 2018).
The source made the active and inactive calls. The rule behind the calls is not given here.

Tested on: CCRIS mutagenicity, Ames/micronucleus/aberration tests
Experiment: CCRIS mutagenicity studies
Details: Test System: AMES SALMONELLA TYPHIMURIUM
[1] = Strain/Indicator: TA98, Metabolic Activation: NONE, Method: STANDARD PLATE
[2] = Strain/Indicator: TA100, Metabolic Activation: NONE, Method: STANDARD PLATE

Measured: mutagenic call

CC(Cl)c1ccccc1 (stereo not drawn)
inactive: [1] inactive; negative | [2] inactive; negative

O=S(=O)(O)CNc1ccc(N=Nc2cccnc2)cc1
inactive: [1] inactive; negative | Strain/Indicator: TA98, Metabolic Activation: RAT, LIVER, S-9, AROCLOR 1254, Method: STANDARD PLATE inactive; negative | [2] inactive; negative | Strain/Indicator: TA100, Metabolic Activation: RAT, LIVER, S-9, AROCLOR 1254, Method: STANDARD PLATE inactive; negative | Strain/Indicator: TA1535, Metabolic Activation: NONE, Method: STANDARD PLATE inactive; negative | Strain/Indicator: TA1535, Metabolic Activation: RAT, LIVER, S-9, AROCLOR 1254, Method: STANDARD PLATE inactive; negative | Strain/Indicator: TA1537, Metabolic Activation: NONE, Method: STANDARD PLATE inactive; negative | Strain/Indicator: TA1537, Metabolic Activation: RAT, LIVER, S-9, AROCLOR 1254, Method: STANDARD PLATE inactive; negative | Strain/Indicator: TA1538, Metabolic Activation: NONE, Method: STANDARD PLATE inactive; negative | Strain/Indicator: TA1538, Metabolic Activation: RAT, LIVER, S-9, AROCLOR 1254, Method: STANDARD PLATE inactive; negative

NC(CO)C(=O)O (stereo not drawn)
inactive: Strain/Indicator: TA98, Metabolic Activation: RAT LIVER S-9, CHLOROPHENE, Method: STANDARD PLATE (COMPOUND HEATED AT 250 DEGREES CELSIUS FOR 20 MIN) inactive; negative
